Literature values as cited in patent US20150038526A1, “FLUORINE-CONTAINING 5-[2-(PYRID-3-YL)-ETHYL]-2,3,4-TETRAHYDRO-1H-PYRIDO[4,3-B]INDOLES AS AGENTS FOR REDUCING UNCONTROLLED PROTEIN AGGREGATION” (FEDERALNOE GOSUDARSTVENNOE BUDZHETNOE UCHREZHDENIE NAUKI …, priority 2011, published 2015).

Test system: gamma-synuclein protein
Conditions: tissues of the nervous system of model animals

Cc1ccc2c(c1)c1c(n2CCc2ccc(C)nc2)CCN(C)C1 [Dimebon]
formation and/or elimination of amyloid-like inclusions formed by gamma-synuclein: modulates the molecular cellular processes of formation and/or elimination of pathological protein depositions
